Measurements published in patent publication US10266527B2, “T-box riboswitch-binding anti-bacterial compounds” (THE RESEARCH FOUNDATION FOR THE STATE UNIVERSITY OF NEW YORK, priority 2013, dated 2019).

Key:
Type in all cases: cell-based
[1] = tested on: B. subtilis BGSC 1A1; experiment: Broth microdilution MIC; conditions: B. subtilis BGSC 1A1; 20 h at 37° C.
Description: (§1) Broth microdilution assays^77, 78 were performed with B. subtilis, and S. aureus to determine the lowest compound concentration inhibiting visible growth, i.e., minimum inhibitory concentration (MIC) of the 4 original compounds. […] The insolubility of the fourth compound may account for its lack of antibacterial activity. […] The MICs of each compound are moderate.
(§2) Strains were grown on trypticase soy agar (TSA) with 5% sheep blood at 37° C. for 24 hours. Five isolated colonies were used to inoculate 5 mL cation-adjusted Mueller-Hinton broth (CAMHB) contained in a 50 mL centrifuge tube. The resulting culture was incubated shaking at 200 rpm for 3 hours at 37° C. and then diluted in CAMHB until its turbidity matched that of a 0.5 McFarland standard (OD625 0.08-0.10). After the culture had been standardized against a 0.5 McFarland standard, it was diluted 1:10 in CAMHB and then 5 μL of this dilution was added to the appropriate wells of a 96-well, flat-bottomed tissue culture plate in which each row contained a twofold dilution series of a particular compound ranging in concentration from 0.25 μg/mL to 512 μg/mL. Each plate also included a sterility control well containing CAMHB to which standardized inoculum was not added and a growth control well containing CAMHB to which 5 μL standardized inoculum was added. […] With the exception of the sterility control well, all wells were inoculated within 15 minutes of inoculum preparation to ensure that the starting concentration of bacteria in each well was approximately 5×10^5 CFU/m L. A Tecan Sunrise microplate absorbance reader was used to measure the OD620 of each well before and after 20 h incubation at 37° C. MIC values were recorded as the lowest compound concentration at which no visible growth was observed after this incubation period.

[2] = tested on: B. cereus ATCC 7064; experiment: Broth microdilution MIC; conditions: B. cereus ATCC 7064
[3] = tested on: S. aureus ATCC 29213; experiment: Broth microdilution MIC; conditions: S. aureus ATCC 29213; N/O = not observed
Text: (§3) The identity and purity of both PKZ 6 and 18 was confirmed by mass spectroscopy. Forty commercially available compounds chosen on the basis of initial in silico selections and similarity to our two hits were screened by disc diffusion assay (DDA) to determine their relative antibacterial activity with S. aureus. […] These 14 compounds were further evaluated by minimum inhibitory concentration assays (MIC)^41,42, and minimum bactericidal assays (MBC)^41 to confirm antibacterial activity, determine the concentration at which S. aureus growth is inhibited in liquid culture (MIC) and if they are acting as bacteriostatic or bactericidal agents (MBC). […] Representative embodiments are shown below.
as §1, §2

[4] = tested on: S. aureus ATCC 29213; experiment: MBC determination; conditions: S. aureus ATCC 29213; N/O = not observed
Text: as §3
(§4) Following 24 h incubation of these subcultures at 37° C., MBC values were recorded as the lowest compound concentration at which no viable colonies were observed.

[5] = tested on: S. pneumoniae ATCC 49619; experiment: Broth microdilution MIC; conditions: S. pneumoniae ATCC 49619
[6] = tested on: E. faecalis ATCC 29212; experiment: Broth microdilution MIC; conditions: N/O = not observed
[7] = tested on: B. cereus ATCC 7064; experiment: MBC determination; conditions: N/O = not observed
Description: as §4

[8] = tested on: B. subtilis BGSC 1A1; experiment: MBC determination; conditions: IND = indeterminate
Description: as §4

[9] = tested on: E. coli ATCC 25922; experiment: MBC determination; conditions: E. coli ATCC 25922
Description: as §4

[10] = tested on: E. faecalis ATCC 29212; experiment: MBC determination; conditions: N/O = not observed
Description: as §4

[11] = tested on: P. aeruginosa ATCC 27853; experiment: MBC determination
Description: as §4

[12] = tested on: E. coli ATCC 25922; experiment: Broth microdilution MIC (Gram negative specificity control); conditions: E. coli ATCC 25922; N/O = not observed
[13] = tested on: P. aeruginosa ATCC 27853; experiment: Broth microdilution MIC; conditions: N/O = not observed

Substance: Gentamicin [reference compound]
- MIC [1]: 0.125 µg/mL
- MIC [2]: 1 µg/mL
- MIC [3]: 0.5 µg/mL
- MBC [4]: 8 µg/mL
- MIC [5]: 4 (N/D) μg/mL
- MIC [6]: 8 µg/mL
- MBC [7]: 2 µg/mL
- MBC [8]: 0.25 µg/mL
- MBC [9]: 1 µg/mL
- MBC [10]: 32 µg/mL
- MBC [11]: 4 µg/mL
- MIC [12]: 1 µg/mL
- MIC [13]: 1 µg/mL
